Consider 16 compounds from PubChem BioAssay AID212 (DTP/NCI, 2004).

Several values for one entry are separate records, joined by “and”; a condition that tells them apart may be missing. Equal values may be shown once. Inconclusive results are not listed.

The experiment deals with BDF1 mice, colon carcinoma 38 sc, T/C %. Briefly: NCI In Vivo Anticancer Drug Screen. Data for tumor model Colon Carcinoma 38 (subcutaneous) in B6D2F1 (BDF1) mice. Particulars: endpoint: median tumor weight (est.), higher = larger tumour. The method, boiled down:
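Mice with transplanted tumors are treated with compound or vehicle. Survival or tumor size is then measured in both groups. The ratio of treated to control gives the reported figure.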

[1] abbreviates: dose: 50.0 mg/kg/injection, schedule: Q07DX002 (ip), vehicle: distilled water + Tween-80.
The mark [2] stands for this setting: dose: 100.0 mg/kg/injection, schedule: Q07DX002 (ip), vehicle: distilled water + Tween-80.
[3] abbreviates: dose: 400.0 mg/kg/injection, schedule: Q07DX002 (ip), vehicle: distilled water + Tween-80.
The mark [4] stands for this setting: dose: 25.0 mg/kg/injection, schedule: Q07DX002 (ip), vehicle: Klucel (hydroxypropylcellulose) (HPC).
Where [5] appears, read: dose: 50.0 mg/kg/injection, schedule: Q07DX002 (ip), vehicle: Klucel (hydroxypropylcellulose) (HPC).
The mark [6] stands for this setting: dose: 100.0 mg/kg/injection, schedule: Q07DX002 (ip), vehicle: Klucel (hydroxypropylcellulose) (HPC).
Where [7] appears, read: dose: 200.0 mg/kg/injection, schedule: Q07DX002 (ip), vehicle: Klucel (hydroxypropylcellulose) (HPC).
[8] abbreviates: dose: 400.0 mg/kg/injection, schedule: Q07DX002 (ip), vehicle: Klucel (hydroxypropylcellulose) (HPC).
Setting [9] is: dose: 50.0 mg/kg/injection, schedule: Q07DX002 (ip), vehicle: saline.
[10] abbreviates: dose: 12.5 mg/kg/injection, schedule: Q07DX002 (ip), vehicle: saline with Tween-80.
[11] abbreviates: dose: 25.0 mg/kg/injection, schedule: Q07DX002 (ip), vehicle: saline with Tween-80.
The mark [12] stands for this setting: dose: 50.0 mg/kg/injection, schedule: Q07DX002 (ip), vehicle: saline with Tween-80.
[13] abbreviates: dose: 100.0 mg/kg/injection, schedule: Q07DX002 (ip), vehicle: saline with Tween-80.
The mark [14] stands for this setting: dose: 200.0 mg/kg/injection, schedule: Q07DX002 (ip), vehicle: saline with Tween-80.
[15] abbreviates: dose: 400.0 mg/kg/injection, schedule: Q07DX002 (ip), vehicle: saline with Tween-80.

For `CC(C)[C@](O)(C(=O)OCC1=CC[N+]2([O-])CC[C@@H](O)[C@@H]12)[C@H](C)O` (stereo partly specified), the T/C runs as follows: (dose: 50.0 mg/kg/injection, schedule: Q07DX003 (ip), vehicle: water) 66 % of control; (dose: 100.0 mg/kg/injection, schedule: Q07DX003 (ip), vehicle: water) 185 % of control; (dose: 200.0 mg/kg/injection, schedule: Q07DX002 (ip), vehicle: water) 73 % of control; (dose: 200.0 mg/kg/injection, schedule: Q07DX003 (ip), vehicle: water) 123 % of control; (dose: 400.0 mg/kg/injection, schedule: Q07DX002 (ip), vehicle: water) 92 % of control; (dose: 400.0 mg/kg/injection, schedule: Q07DX003 (ip), vehicle: water) 71 % of control. For the same compound, the T/C is 64 % of control (dose: 800.0 mg/kg/injection, schedule: Q07DX002 (ip), vehicle: water); 68 % of control (dose: 800.0 mg/kg/injection, schedule: Q07DX003 (ip), vehicle: water); 48 % of control (dose: 1600.0 mg/kg/injection, schedule: Q07DX002 (ip), vehicle: water).

For the compound `C1CC[N-]CC1.[Cl][Pt+2][Cl].[NH-]C1CC1`, the T/C is 75 % of control (dose: 6.25 mg/kg/injection, schedule: Q07DX002 (ip), vehicle: water); 86 % of control (dose: 25.0 mg/kg/injection, schedule: Q07DX002 (ip), vehicle: water); 163 % of control (dose: 100.0 mg/kg/injection, schedule: Q07DX002 (ip), vehicle: water).

Consider `CC(=O)OC1(C)CC(C)C(=O)C(C(O)CC2CC(=O)NC(=O)C2)C1` (stereo unspecified), for which the T/C is, setting by setting: (dose: 47.0 micrograms/kg/injection, schedule: Q07DX002 (ip), vehicle: saline) 106 % of control; (dose: 94.0 micrograms/kg/injection, schedule: Q07DX002 (ip), vehicle: saline) 123 % of control; (dose: 188.0 micrograms/kg/injection, schedule: Q07DX002 (ip), vehicle: saline) 116 % of control; (dose: 375.0 micrograms/kg/injection, schedule: Q07DX002 (ip), vehicle: saline) 117 % of control; (dose: 750.0 micrograms/kg/injection, schedule: Q07DX002 (ip), vehicle: saline) 101 % of control.

For the compound `CC(=O)Oc1c[nH]c(=O)[nH]c1=O`, the T/C was 107 % of control under setting [1]; 108 % of control and 121 % of control under setting [2]; 124 % of control under setting [3]; 121 % of control and 102 % of control (dose: 800.0 mg/kg/injection, schedule: Q07DX002 (ip), vehicle: distilled water + Tween-80).

On to `Cc1ccc(C2NC(=S)N3C(c4ccc(C)cc4)NC(=S)N23)cc1` (stereo unspecified), for which the T/C reads like this: under setting [4], 94 % of control; under setting [5], 79 % of control; under setting [6], 83 % of control; under setting [7], 88 % of control; under setting [8], 89 % of control; (dose: 800.0 mg/kg/injection, schedule: Q07DX002 (ip), vehicle: Klucel (hydroxypropylcellulose) (HPC)) 60 % of control.

Consider `CC(=O)OC1C2OC3C=C(C)CCC3(CO)C(C)(C1OC(C)=O)C21CO1` (stereo unspecified), for which the T/C is, setting by setting: (dose: 0.5 mg/kg/injection, schedule: Q07DX003 (ip), vehicle: saline) 50 % of control and 61 % of control; (dose: 1.0 mg/kg/injection, schedule: Q07DX003 (ip), vehicle: saline) 87 % of control and 101 % of control; (dose: 2.0 mg/kg/injection, schedule: Q07DX003 (ip), vehicle: saline) 111 % of control and 117 % of control; (dose: 2.5 mg/kg/injection, schedule: Q01DX001 (ip), vehicle: saline) 266 % of control; (dose: 4.0 mg/kg/injection, schedule: Q07DX003 (ip), vehicle: saline) 69 % of control and 75 % of control; (dose: 5.0 mg/kg/injection, schedule: Q01DX001 (ip), vehicle: saline) 231 % of control. In addition, the T/C (dose: 10.0 mg/kg/injection, schedule: Q01DX001 (ip), vehicle: saline) was 173 % of control.

Regarding `O=NNc1ccccn1`, the T/C was 98 % of control (dose: 1.56 mg/kg/injection, schedule: Q07DX002 (ip), vehicle: saline); 85 % of control and 96 % of control (dose: 3.12 mg/kg/injection, schedule: Q07DX002 (ip), vehicle: saline); 110 % of control (dose: 6.25 mg/kg/injection, schedule: Q07DX002 (ip), vehicle: saline); 120 % of control and 106 % of control (dose: 12.5 mg/kg/injection, schedule: Q07DX002 (ip), vehicle: saline); 95 % of control under setting [9].

`O=C1C2(Cl)C3(Cl)C4(Cl)C(Cl)(Cl)C5(Cl)[C@]3(Cl)C1(Cl)[C@]5(Cl)C24Cl` (stereo partly specified): the T/C is, setting by setting: under setting [4], 88 % of control; under setting [5], 75 % of control; under setting [6], 44 % of control.

As to `CCCC(=O)O`, the T/C is, setting by setting: (dose: 25.0 mg/kg/injection, schedule: Q07DX002 (ip), vehicle: saline) 121 % of control; under setting [9], 105 % of control; (dose: 200.0 mg/kg/injection, schedule: Q07DX002 (ip), vehicle: saline) 99 % of control.

Take `CN1C(=O)NC(c2ccc(Cl)cc2)(c2ccc(Cl)cc2)C1=O`: the T/C was 95 % of control (dose: 12.5 mg/kg/injection, schedule: Q07DX002 (ip), vehicle: distilled water + Tween-80); 105 % of control (dose: 25.0 mg/kg/injection, schedule: Q07DX002 (ip), vehicle: distilled water + Tween-80); 51 % of control under setting [1]; 97 % of control under setting [2]; 52 % of control (dose: 200.0 mg/kg/injection, schedule: Q07DX002 (ip), vehicle: distilled water + Tween-80); 58 % of control under setting [3].

Regarding `CC[N+](CC)(CC)CC`, the T/C is, setting by setting: (dose: 1.56 mg/kg/injection, schedule: Q07DX002 (ip), vehicle: saline with Tween-80) 96 % of control; (dose: 3.12 mg/kg/injection, schedule: Q07DX002 (ip), vehicle: saline with Tween-80) 119 % of control; (dose: 6.25 mg/kg/injection, schedule: Q07DX002 (ip), vehicle: saline with Tween-80) 86 % of control; under setting [10], 59 % of control.

As for `N#CCCSC(=S)C1CCCC1=N` (stereo unspecified), the T/C runs as follows: under setting [11], 107 % of control; under setting [12], 95 % of control; under setting [13], 90 % of control; under setting [14], 99 % of control; under setting [15], 71 % of control; (dose: 800.0 mg/kg/injection, schedule: Q07DX002 (ip), vehicle: saline with Tween-80) 86 % of control.

Consider `CC1(c2ccc(Cl)cc2)OC(=O)C(=Cc2ccc([N+](=O)[O-])s2)C(=O)O1` (stereo unspecified), for which the T/C is, setting by setting: under setting [10], 77 % of control; under setting [11], 63 % of control; under setting [12], 101 % of control; under setting [13], 100 % of control; under setting [14], 79 % of control.

Take `Cc1ccc2c(c1)n([O-])c1cc(Cl)ccc1[n+]2=O`: the T/C reads like this: under setting [11], 118 % of control; under setting [12], 102 % of control; under setting [13], 78 % of control; under setting [14], 76 % of control; under setting [15], 79 % of control.

Consider `C=C(NC(=O)C(=C)NC(=O)c1csc(C2=NC3c4csc(n4)C4NC(=O)c5csc(n5)C(C(C)(O)C(C)O)NC(=O)C5CSC(=N5)/C(=C/C)NC(=O)C(C(C)O)NC(=O)c5csc(n5)C3(CC2)NC(=O)C(C)NC(=O)C(=C)NC(=O)C(C)NC(=O)C(C(C)CC)NC2C=Cc3c(C(C)O)cc(nc3C2O)C(=O)OC4C)n1)C(N)=O` (stereo unspecified), for which the T/C is 70 % of control (dose: 12.5 mg/kg/injection, schedule: Q07DX002 (ip), vehicle: Klucel (hydroxypropylcellulose) (HPC)); 106 % of control under setting [5]; 106 % of control under setting [6]; 110 % of control under setting [7]; 119 % of control under setting [8]; 119 % of control (dose: 400.0 mg/kg/injection, schedule: Q07DX003 (ip), vehicle: Klucel (hydroxypropylcellulose) (HPC)).

For `O=Cc1ccc(C=O)c(Cl)c1`, the T/C runs as follows: under setting [5], 107 % of control; under setting [6], 79 % of control; under setting [7], 95 % of control; under setting [8], 75 % of control.
